Data as given in ChEMBL document CHEMBL5537150, “Synthesis of melampomagnolide B derivatives as potential anti-Triple Negative Breast Cancer agents” (Eur J Med Chem, 2024).
Each block holds one compound with its values, some of them ahead of it. Activity calls are given as the source filed them. No cut-off for these calls is given here.

Columns and labels:
MDA-MB-231 [1] = assay: Antiproliferative activity against human MDA-MB-231 cells assessed as inhibition of cell growth incubated for 72 hrs by MTT assay; format: functional, cell-based; conditions: MDA-MB-231, 72 h
SUM-159-PT = assay: Antiproliferative activity against human SUM159 cells assessed as inhibition of cell growth incubated for 72 hrs by MTT assay; format: functional, cell-based
MDA-MB-468 [2] = assay: Antiproliferative activity against human MDA-MB-468 cells assessed as inhibition of cell growth incubated for 72 hrs by MTT assay; format: functional, cell-based; conditions: MDA-MB-468, 72 h
MCF7 = assay: Antiproliferative activity against human MCF7 cells assessed as inhibition of cell growth incubated for 72 hrs by MTT assay; format: functional, cell-based; conditions: MCF7, 72 h
4T1 = assay: Antiproliferative activity against mouse 4T1 cells assessed as inhibition of cell growth incubated for 72 hrs by MTT assay; format: functional, cell-based; conditions: 4T1, 72 h
NIH3T3 = assay: Cytotoxicity against mouse 3T3 cells at 1 uM incubated for 72 hrs by MTT assay; format: toxicity, cell-based; conditions: nih3t3, 72 h
MDA-MB-468 [3] = assay: Antimigratory activity in human MDA-MB-468 cells assessed as reduction in number of migrated cells incubated for 48 hrs by crystal violet staining based transwell assay; format: functional, cell-based
MDA-MB-231 [4] = assay: Antimigratory activity in human MDA-MB-231 cells assessed as reduction in number of migrated cells incubated for 48 hrs by crystal violet staining based transwell assay; format: functional, cell-based
MDA-MB-468 [5] = assay: Antimigratory activity in human MDA-MB-468 cells assessed as downregulation of Vimentin protein expression incubated for 48 hrs by Western blotting analysis; format: functional, cell-based
MDA-MB-468 [6] = assay: Antimigratory activity in human MDA-MB-468 cells assessed as downregulation of N-cadherin protein expression incubated for 48 hrs by Western blotting analysis; format: functional, cell-based
MDA-MB-231 [7] = assay: Antimigratory activity in human MDA-MB-231 cells assessed as downregulation of N-cadherin protein expression incubated for 48 hrs by Western blotting analysis; format: functional, cell-based
MDA-MB-231 [8] = assay: Antimigratory activity in human MDA-MB-231 cells assessed as downregulation of Vimentin protein expression incubated for 48 hrs by Western blotting analysis; format: functional, cell-based
MDA-MB-468 [9] = assay: Induction of apoptosis in human MDA-MB-468 cells at 0.2 uM incubated for 48 hrs by annexin-V-APC/PI staining based flow cytometric analysis (reference value: 5.65 +/- 2.76 %); format: functional
MDA-MB-468 [10] = assay: Induction of apoptosis in human MDA-MB-468 cells at 0.5 uM incubated for 48 hrs by annexin-V-APC/PI staining based flow cytometric analysis (reference value: 5.65 +/- 2.76 %); format: functional
MDA-MB-468 [11] = assay: Induction of apoptosis in human MDA-MB-468 cells at 1 uM incubated for 48 hrs by annexin-V-APC/PI staining based flow cytometric analysis (reference value: 5.65 +/- 2.76 %); format: functional
MDA-MB-468 [12] = assay: Induction of apoptosis in human MDA-MB-468 cells at 2 uM incubated for 48 hrs by annexin-V-APC/PI staining based flow cytometric analysis (reference value: 5.65 +/- 2.76 %); format: functional
MDA-MB-468 [13] = assay: Induction of apoptosis in human MDA-MB-468 cells at 5 uM incubated for 48 hrs by annexin-V-APC/PI staining based flow cytometric analysis (reference value: 5.65 +/- 2.76 %); format: functional
MDA-MB-231 [14] = assay: Induction of apoptosis in human MDA-MB-231 cells at 0.2 uM incubated for 48 hrs by annexin-V-APC/PI staining based flow cytometric analysis (reference value: 5.9 +/- 0.26 %); format: functional
MDA-MB-231 [15] = assay: Induction of apoptosis in human MDA-MB-231 cells at 0.5 uM incubated for 48 hrs by annexin-V-APC/PI staining based flow cytometric analysis (reference value: 5.9 +/- 0.26 %); format: functional
MDA-MB-231 [16] = assay: Induction of apoptosis in human MDA-MB-231 cells at 1 uM incubated for 48 hrs by annexin-V-APC/PI staining based flow cytometric analysis (reference value: 5.9 +/- 0.26 %); format: functional
MDA-MB-231 [17] = assay: Induction of apoptosis in human MDA-MB-231 cells at 2 uM incubated for 48 hrs by annexin-V-APC/PI staining based flow cytometric analysis (reference value: 5.9 +/- 0.26 %); format: functional
MDA-MB-231 [18] = assay: Induction of apoptosis in human MDA-MB-231 cells at 5 uM incubated for 48 hrs by annexin-V-APC/PI staining based flow cytometric analysis (reference value: 5.9 +/- 0.26 %); format: functional
MDA-MB-231 [19] = assay: Induction of apoptosis in human MDA-MB-231 cells assessed as downregulation of BCL-2 protein expression incubated for 48 hrs by Western blotting analysis; format: functional, cell-based
MDA-MB-231 [20] = assay: Induction of apoptosis in human MDA-MB-231 cells assessed as downregulation of MCL-1 protein expression incubated for 48 hrs by Western blotting analysis; format: functional, cell-based
MDA-MB-231 [21] = assay: Induction of apoptosis in human MDA-MB-231 cells assessed as downregulation of BCL-xl protein expression incubated for 48 hrs by Western blotting analysis; format: functional, cell-based
MDA-MB-231 [22] = assay: Induction of apoptosis in human MDA-MB-231 cells assessed as upregulation of Bax protein expression incubated for 48 hrs by Western blotting analysis; format: functional, cell-based
MDA-MB-231 [23] = assay: Inhibition of NF-kappaB signalling pathway in human MDA-MB-231 cells assessed as downregulation of p65 phosphorylation at 0.5 to 2 uM incubated for 48 hrs by Western blotting analysis; format: cell-based; conditions: dose 0.5-2 µM
MDA-MB-231 [24] = assay: Inhibition of NF-kappaB signalling pathway in human MDA-MB-231 cells assessed as downregulation of IkappaBalpha phosphorylation at 0.5 to 2 uM incubated for 48 hrs by Western blotting analysis; format: cell-based; conditions: dose 0.5-2 µM
MDA-MB-231 [25] = assay: Inhibition of NF-kappaB signalling pathway in human MDA-MB-231 cells assessed as effect on total p65 protein level at 0.2 to 2 uM incubated for 48 hrs by Western blotting analysis; format: cell-based; conditions: dose 0.2-2 µM
MDA-MB-231 [26] = assay: Inhibition of NF-kappaB signalling pathway in human MDA-MB-231 cells assessed as upregulation of cytoplasmic p65 expression at 0.2 to 2 uM incubated for 48 hrs by Western blotting analysis; format: cell-based; conditions: dose 0.2-2 µM
MDA-MB-231 [27] = assay: Inhibition of NF-kappaB signalling pathway in human MDA-MB-231 cells assessed as downregulation of nuclear p65 expression at 0.2 to 2 uM incubated for 48 hrs by Western blotting analysis; format: cell-based; conditions: dose 0.2-2 µM
MDA-MB-231 [28] = assay: Inhibition of NF-kappaB signalling pathway in human MDA-MB-231 cells assessed as inhibition of p65 nuclear translocation at 0.2 to 2 uM incubated for 48 hrs by Western blotting analysis; format: cell-based; conditions: dose 0.2-2 µM

IC50 (MDA-MB-231 [1]): 3.84 µM
IC50 (MDA-MB-468 [2]): 20 µM
IC50 (MCF7): 6.76 µM
IC50 (4T1): 5.88 µM
Compound: C=C1C(=O)O[C@H]2[C@H]1CC/C(CO)=C\CC[C@@]1(C)O[C@@H]21
IC50 (SUM-159-PT): 7.45 µM

IC50 (MDA-MB-231 [1]): 1.07 µM
IC50 (MDA-MB-468 [2]): 0.37 µM
IC50 (MCF7): 1.81 µM
IC50 (4T1): 2.85 µM
Compound: C=C1C(=O)O[C@H]2[C@H]1C(COC(=O)/C=C/c1ccccc1OCCc1ccc(-c3cc(=S)ss3)cc1)C/C=C\CC[C@@]1(C)O[C@@]21C (stereo partly drawn)
IC50 (SUM-159-PT): 1.06 µM
Activity (NIH3T3): Toxic
Activity (MDA-MB-468 [3]): Dose-Dependent Effect
Activity (MDA-MB-231 [4]): Dose-Dependent Effect
Activity (MDA-MB-468 [5]): Dose-Dependent Effect
Activity (MDA-MB-468 [6]): Dose-Dependent Effect
Activity (MDA-MB-231 [7]): Dose-Dependent Effect
Activity (MDA-MB-231 [8]): Dose-Dependent Effect
Activity (MDA-MB-468 [9]): 5.8%
Activity (MDA-MB-468 [10]): 4.3%
Activity (MDA-MB-468 [11]): 4.87%
Activity (MDA-MB-468 [12]): 11.32%
Activity (MDA-MB-468 [13]): 52.61%
Activity (MDA-MB-231 [14]): 6.85%
Activity (MDA-MB-231 [15]): 7.9%
Activity (MDA-MB-231 [16]): 15.46%
Activity (MDA-MB-231 [17]): 20.32%
Activity (MDA-MB-231 [18]): 49.35%
Activity (MDA-MB-231 [19]): Dose-Dependent Effect
Activity (MDA-MB-231 [20]): Dose-Dependent Effect
Activity (MDA-MB-231 [21]): Dose-Dependent Effect
Activity (MDA-MB-231 [22]): Dose-Dependent Effect
inhibition (MDA-MB-231 [23]): Active
inhibition (MDA-MB-231 [24]): Active
inhibition (MDA-MB-231 [25]): inactive
inhibition (MDA-MB-231 [26]): Active
inhibition (MDA-MB-231 [27]): Active
inhibition (MDA-MB-231 [28]): Active

IC50 (MDA-MB-231 [1]): > 50 µM
Compound: C=C1C(=O)O[C@H]2[C@H]1C(COC(=O)CCCC(=O)O)C/C=C\CC[C@@]1(C)O[C@@H]21 (stereo partly drawn)

IC50 (MDA-MB-231 [1]): 8.52 µM
Compound: C=C1C(=O)O[C@H]2[C@H]1C(COC(=O)CCCC(=O)Oc1ccc(-c3cc(=S)ss3)cc1)C/C=C\CC[C@@]1(C)O[C@@H]21 (stereo partly drawn)

IC50 (MDA-MB-231 [1]): 2.11 µM
Compound: C=C1C(=O)O[C@H]2[C@H]1C(COC(=O)CC1(CC(=O)Oc3ccc(-c4cc(=S)ss4)cc3)CCCC1)C/C=C\CC[C@@]1(C)O[C@@H]21 (stereo partly drawn)

IC50 (MDA-MB-231 [1]): 2.47 µM
Compound: C=C1C(=O)O[C@H]2[C@H]1CC/C(C(=O)OCCCCOc1ccc(-c3cc(=S)ss3)cc1)=C\CC[C@@]1(C)O[C@@H]21

IC50 (MDA-MB-231 [1]): 6.2 µM
Compound: C=C1C(=O)O[C@H]2[C@H]1C(COC(=O)CCCCC(=O)Oc1ccc(-c3cc(=S)ss3)cc1)C/C=C\CC[C@@]1(C)O[C@@H]21 (stereo partly drawn)

IC50 (MDA-MB-231 [1]): > 50 µM
Compound: Oc1ccc(-c2cc(=S)ss2)cc1

IC50 (MDA-MB-231 [1]): 36.4 µM
Compound: C=C1C(=O)O[C@H]2[C@H]1C(COC(=O)CC(C)(C)CC(=O)O)C/C=C\CC[C@@]1(C)O[C@@H]21 (stereo partly drawn)

IC50 (MDA-MB-231 [1]): 4.34 µM
Compound: C=C1C(=O)O[C@H]2[C@H]1C(COC(=O)CCC(=O)Oc1ccc(-c3cc(=S)ss3)cc1)C/C=C\CC[C@@]1(C)O[C@@H]21 (stereo partly drawn)

IC50 (MDA-MB-231 [1]): > 50 µM
Compound: C=C1C(=O)O[C@H]2[C@H]1CC/C(C(=O)O)=C\CC[C@@]1(C)O[C@@H]21

IC50 (MDA-MB-231 [1]): 2.09 µM
Compound: C=C1C(=O)O[C@H]2[C@H]1CC/C(C(=O)OCCCOc1ccc(-c3cc(=S)ss3)cc1)=C\CC[C@@]1(C)O[C@@H]21

IC50 (MDA-MB-231 [1]): > 50 µM
Compound: C=C1C(=O)O[C@H]2[C@H]1C(COC(=O)c1ccccc1C(=O)O)C/C=C\CC[C@@]1(C)O[C@@H]21 (stereo partly drawn)
